Where two headings read alike, the source gives them in different places.
What was measured:
large (Lg) crabgrass = assay: Test A preemergence; assay type: in vivo, Digitaria sanguinalis; details: for pest or weed control at 125 g/ha / pest or weed control at 500 g/ha: Digitaria sanguinalis, pre-emergence, 240 h
Method in brief: (§1)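 Visual 0–100 rating (100 = complete control) taken about 10 d post-treatment relative to untreated checks. Preemergence: directed soil spray on sown loam/sand pots. Postemergence: seedlings 2–10 cm, 1–2 leaf. Non-phytotoxic solvent formulation with surfactant.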

morningglory = assay: Test A preemergence; assay type: in vivo, Ipomoea spp.; details: for pest or weed control at 500 g/ha: Ipomoea, pre-emergence, 240 h, read-out: Morningglory plant response rating
Method in brief: as §1

wheat = assay: Test A postemergence; assay type: in vivo, Triticum aestivum; details: for plant injury at 125 g/ha / plant injury at 500 g/ha: Triticum aestivum, post-emergence, 240 h; for plant injury at 125 g/ha: read-out: Plant response rating, Wheat; for plant injury at 500 g/ha: read-out: Plant response rating Wheat
Method in brief: as §1

pigweed = assay: Test A preemergence; assay type: in vivo, Amaranthus retroflexus; details: for pest or weed control at 125 g/ha / pest or weed control at 500 g/ha: Amaranthus retroflexus, pre-emergence
Method in brief: as §1

corn = assay: Test A postemergence; assay type: in vivo, Zea mays; details: for Corn plant response rating (crop injury, 0 = no effect, 100 = complete kill) at 125 g/ha / plant injury at 500 g/ha: Zea mays, post-emergence, 240 h; for plant injury at 500 g/ha: read-out: Plant response rating Corn
Method in brief: as §1

velvetleaf = assay: Test A preemergence; assay type: in vivo, Abutilon theophrasti
Method in brief: as §1

ragweed = assay: Test C preemergence; assay type: in vivo, Ambrosia elatior; details: Ambrosia artemisiifolia, pre-emergence
Description: (§2) Seeds of plant species selected from blackgrass (Alopecurus myosuroides), Italian ryegrass (Lolium multiflorum), wheat, winter (winter wheat, Triticum aestivum), galium (catchweed bedstraw, Galium aparine), corn (Zea mays), large (Lg) crabgrass (Digitaria sanguinalis), giant foxtail (Setaria faberii), johnsongrass (Sorghum halepense), lambsquarters (Chenopodium album), morningglory (Ipomoea coccinea), yellow nutsedge (Cyperus esculentus), pigweed (Amaranthus retroflexus), ragweed (common ragweed, Ambrosia elatior), soybean (Glycine max), barnyardgrass (Echinochloa crus-galli), oilseed rape (Brassica napus), waterhemp (common waterhemp, Amaranthus rudis), kochia (Kochia scoparia), wild oat (Avena fatua), surinam grass (Brachiaria decumbens), foxtail, green (green foxtail, Setaria viridis), goosegrass (Eleusine indica), bromegrass, downy (downy bromegrass, Bromus tectorum), nightshade (eastern black nightshade, Solanum ptycanthum), cocklebur (common cocklebur, Xanthium strumarium), cupgrass, woolly (woolly cupgrass, Eriochloa villosa), bermudagrass (Cynodon dactylon), sunflower, (common oilseed sunflower, Helianthus annuus), Russian thistle (Salsola kali), and velvetleaf (Abutilon theophrasti) were planted into a blend of loam soil and sand and treated preemergence with test chemicals formulated in a non-phytotoxic solvent mixture which included a surfactant.
(§3) At the same time, plants selected from these crop and weed species and also barley, winter (winter barley, Hordeum vulgare), windgrass (Apera spica-venti), chickweed (common chickweed, Stellaria media), deadnettle (henbit deadnettle, Lamium amplexicaule), and canarygrass (littleseed canarygrass, Phalaris minor) were planted in pots containing Redi-Earth® planting medium (Scotts Company, 14111 Scottslawn Road, Marysville, Ohio 43041) comprising spaghnum peat moss, vermiculite, wetting agent and starter nutrients and treated with postemergence applications of test chemicals formulated in the same manner. Plants ranged in height from 2 to 18 cm (1- to 4-leaf stage) for postemergence treatments. Treated plants and controls were maintained in a greenhouse for 13 to 15 days, after which time all species were compared to controls and visually evaluated. Plant response ratings, summarized in Table C, are based on a scale of 0 to 100 where 0 is no effect and 100 is complete control. A dash (-) response means no test result.

soybean = assay: Test C preemergence; assay type: in vivo, Glycine max; details: Glycine max, pre-emergence
Description: as §2, §3

johnsongrass = assay: Test C preemergence; assay type: in vivo, Sorghum halepense; details: Sorghum halepense, pre-emergence
Description: as §2, §3

giant foxtail = assay: Test C preemergence; assay type: in vivo, Setaria faberii; details: Setaria faberi, pre-emergence
Description: as §2, §3

[1] = 125 g ai/ha, 0 to 100 scale where 0 is no effect and 100 is complete control
[2] = 500 g ai/ha, 0 to 100 scale, 0 no effect, 100 complete control, approx. 10 days
[3] = 500 g ai/ha, 0 to 100 scale, 0 no effect, 100 complete control
[4] = 500 g ai/ha, 0 to 100 scale, 0 no effect, 100 complete control, approx. 10 days, read-out: Crabgrass, Large plant response rating
[5] = 240 h, 500 g ai/ha, 0 to 100 scale, 0 no effect, 100 complete control, approx. 10 days, read-out: Pigweed plant response rating
[6] = Abutilon theophrasti, pre-emergence, 240 h, 500 g ai/ha, 0 to 100 scale, 0 no effect, 100 complete control, approx. 10 days, read-out: Velvetleaf plant response rating

In the case of `Clc1cnc(Oc2ccccc2-n2cc(Cl)cn2)nc1` [Compound 3], the “Crabgrass, Large plant response rating” value (large (Lg) crabgrass; [1]) is reported as 90, the “Crabgrass, Large plant response rating” value (large (Lg) crabgrass; [2]) is reported as 100 and the “Morningglory plant response rating” value (morningglory; [1]) is reported as 0. For the same compound, the “Morningglory plant response rating” value (morningglory; [2]) was 20, the “Plant response rating, Wheat” value (wheat; [1]) was 0 and the “Plant response rating, Wheat” value (wheat; [3]) was 0. For the same compound, the “Pigweed plant response rating” value (pigweed; [1]) was 90, the “Pigweed plant response rating” value (pigweed; [2]) was 100 and the “Plant response rating, Corn” value (corn; [1]) was 0. For the same compound, the “Plant response rating, Corn” value (corn; [3]) was 40, the “Velvetleaf plant response rating” value (velvetleaf; [1]) was 70 and the “Velvetleaf plant response rating” value (velvetleaf; [2]) was 90.

With `FC(F)(F)c1cnn(-c2ccccc2Oc2ncc(Br)cn2)c1` [Compound 18, 5-bromo-2-[2-[4-(trifluoromethyl)-1H-pyrazol-1-yl]phenoxy]pyrimidine] the pest or weed control at 125 g/ha (large (Lg) crabgrass; 125 g ai/ha, 0 to 100 scale where 0 is no effect and 100 is complete control, read-out: Plant response rating, Crabgrass, Large) was 100%, the pest or weed control at 500 g/ha (large (Lg) crabgrass; [4]) was 100% and the “Plant response rating, Morningglory” value (morningglory; [1]) was 0. The pest or weed control at 500 g/ha (morningglory; [2]) was 40%, the plant injury at 125 g/ha (wheat; [1]) was 50% and the plant injury at 500 g/ha (wheat; [3]) was 50%. The pest or weed control at 62 g/ha (ragweed; 62 g ai/ha, preemergence, scale 0 (no effect) to 100 (complete control), read-out: Ragweed plant response rating) was 0%, the pest or weed control at 125 g/ha (ragweed; 125 g ai/ha, preemergence, scale 0 (no effect) to 100 (complete control), read-out: Ragweed plant response rating) was 10% and the pest or weed control at 250 g/ha (ragweed; 250 g ai/ha, preemergence, scale 0 (no effect) to 100 (complete control), read-out: Ragweed plant response rating) was 30%. For the same compound, the pest or weed control at 31 g/ha (ragweed; Preemergence, 31 g ai/ha, scale 0 to 100, 0 no effect, 100 complete control, read-out: Plant response rating, Ragweed) was 0%, the pest or weed control at 125 g/ha (pigweed; 125 g ai/ha, 0 to 100 scale where 0 is no effect and 100 is complete control, read-out: Plant response rating, Pigweed) was 100% and the pest or weed control at 500 g/ha (pigweed; [5]) was 100%. It also gave a plant injury at 62 g/ha (soybean; 62 g ai/ha, preemergence, scale 0 (no effect) to 100 (complete control), read-out: Soybean plant response rating) of 65%, a plant injury at 125 g/ha (soybean; 125 g ai/ha, preemergence, scale 0 (no effect) to 100 (complete control), read-out: Soybean plant response rating) of 85% and a plant injury at 250 g/ha (soybean; 250 g ai/ha, preemergence, scale 0 (no effect) to 100 (complete control), read-out: Soybean plant response rating) of 85%. The plant injury at 31 g/ha (soybean; Preemergence, 31 g ai/ha, scale 0 to 100, 0 no effect, 100 complete control, read-out: Plant response rating, Soybean) was 25%, the pest or weed control at 62 g/ha (johnsongrass; 62 g ai/ha, preemergence, scale 0 (no effect) to 100 (complete control), read-out: Johnsongrass plant response rating) was 30% and the pest or weed control at 125 g/ha (johnsongrass; 125 g ai/ha, preemergence, scale 0 (no effect) to 100 (complete control), read-out: Johnsongrass plant response rating) was 80%. It also gave a pest or weed control at 250 g/ha (johnsongrass; 250 g ai/ha, preemergence, scale 0 (no effect) to 100 (complete control), read-out: Johnsongrass plant response rating) of 98%, a pest or weed control at 31 g/ha (johnsongrass; Preemergence, 31 g ai/ha, scale 0 to 100, 0 no effect, 100 complete control, read-out: Plant response rating, Johnsongrass) of 30% and a pest or weed control at 62 g/ha (giant foxtail; 62 g ai/ha, preemergence, scale 0 (no effect) to 100 (complete control), read-out: Foxtail, Giant plant response rating) of 100%. It also gave a pest or weed control at 125 g/ha (giant foxtail; 125 g ai/ha, preemergence, scale 0 (no effect) to 100 (complete control), read-out: Foxtail, Giant plant response rating) of 100%, a pest or weed control at 250 g/ha (giant foxtail; 250 g ai/ha, preemergence, scale 0 (no effect) to 100 (complete control), read-out: Foxtail, Giant plant response rating) of 100% and a pest or weed control at 31 g/ha (giant foxtail; Preemergence, 31 g ai/ha, scale 0 to 100, 0 no effect, 100 complete control, read-out: Plant response rating, Foxtail, Giant) of 65%. For the same compound, the Corn plant response rating (crop injury, 0 = no effect, 100 = complete kill) at 125 g/ha (corn; [1]) was 30%, the plant injury at 500 g/ha (corn; [3]) was 90% and the “Plant response rating, Velvetleaf” value (velvetleaf; [1]) was 90. It also gave a pest or weed control at 500 g/ha (velvetleaf; [6]) of 90%.

`FC(F)(F)c1ccn(-c2ccccc2Oc2ncc(Cl)cn2)n1` [Compound 2, 5-chloro-2-[2-[3-(trifluoromethyl)-1H-pyrazol-1-yl]phenoxy]pyrimidine] was tested, and the pest or weed control at 125 g/ha (large (Lg) crabgrass; 125 g ai/ha, 0 to 100 scale where 0 is no effect and 100 is complete control, read-out: Crabgrass, Large plant response rating) was 80%, the pest or weed control at 500 g/ha (large (Lg) crabgrass; [4]) was 100% and the pest or weed control at 500 g/ha (morningglory; [2]) was 20%. The plant injury at 125 g/ha (wheat; [1]) was 0%, the plant injury at 500 g/ha (wheat; [3]) was 0% and the pest or weed control at 125 g/ha (pigweed; 240 h, 125 g ai/ha, 0 to 100 scale where 0 is no effect and 100 is complete control, read-out: Pigweed plant response rating) was 90%. It also gave a pest or weed control at 500 g/ha (pigweed; [5]) of 100%, a Corn plant response rating (crop injury, 0 = no effect, 100 = complete kill) at 125 g/ha (corn; [1]) of 0% and a plant injury at 500 g/ha (corn; [3]) of 40%. For the same compound, the pest or weed control at 125 g/ha (velvetleaf; Abutilon theophrasti, pre-emergence, 240 h, 125 g ai/ha, 0 to 100 scale where 0 is no effect and 100 is complete control, read-out: Velvetleaf plant response rating) was 30% and the pest or weed control at 500 g/ha (velvetleaf; [6]) was 70%.

Reference: patent publication US9695155B2, “Herbicidal substituted pyrimidinyloxy benzene compounds” (E. I. DU PONT DE NEMOURS AND COMPANY, priority 2013, dated 2017)
